Experiment [1] deals with RAC-PKα. In kind it is biochemical, human. As to conditions: expressed in COS-1 cells, without MAPKAP kinase-2.
Another experiment concerns GSK3β. Type of experiment: cell-based, human.
Experiment [2] relates to RAC-PKα. The conditions noted are these: 293 cells.
For another experiment, the target named is mixed isoforms of PKC. The experiment is described as follows: Protein kinase inhibition assay, mixed isoforms of PKC (histone H1 substrate). Type of experiment: biochemical. As for the experimental part: (§1) After incubation on ice for 10 minutes, the reaction was started by the addition of 10µL of 50 mM magnesium acetate and 0.5 mM [.gamma^32P]ATP (100-200 cpm/pmol). For the assay of mixed isoforms of PKC 20µM diacylglycerol, 0.5 mM CaCl.sub2 and 100µM phosphatidylsene were also present in the incubations. The assays were carried out for 15 minutes at 30° C., then terminated and analyzed as described. See Alessi et al., Methods Enzymol, Vol. 255, pp. 279-290 (1995). One unit of activity was that amount of enzyme that catalyzed the phosphorylation of 1 nmol os substrate in 1 minute. The final concentration of DMSO in each assay was 1% (by vol). […] Mixed isoforms of PKC were assayed using histone H1 as substrate, while MAPKAP-K11 and p70 S6 kinase were assayed using the peptide […] (SEQ ID NO: 14). See Leighton et al. (1995), supra. PK B was assayed with the peptide […] [9] (SEQ ID NO: 5) and MAPKAP-K2 was assayed with the peptide […] (SEQ ID NO: 27). See Stokoe, Caudwell, Cohen and Cohen, Biochem J, Vol. 296, Pt. 3, pp. 843-849 (1993). p42 MAP kinase was assayed using MBP, and MAPKK-1 and c-Raf1 were assayed as described in Alessi et al., Methods Enzymol (1995), supra.

The next experiment addresses PK B (Homo sapiens, UniProt P31749). Briefly: Protein kinase inhibition assay, PK B (peptide […] substrate). In kind it is biochemical. Here is the method:
as §1

The target in a further experiment is T1, MAPKAP-K1β (Oryctolagus cuniculus, UniProt A0A5F9C4L9).
T1 construct: from tissue; host or cells: rabbit skeletal muscle
The experiment is described as follows: Protein kinase inhibition assay, MAPKAP-K1β (peptide […] substrate). In kind it is biochemical, rabbit.

The target in a further experiment is T2, p70 S6 kinase (Rattus norvegicus, UniProt P67999).
T2 construct: from tissue; host or cells: rat liver
The experiment is described as follows: Protein kinase inhibition assay, p70 S6 kinase (peptide […] substrate). Type of experiment: biochemical.

The target of a further experiment is c-Raf1 (Homo sapiens, UniProt P04049). Briefly: Protein kinase inhibition assay, c-Raf1. In kind it is biochemical. As for the experimental part: as §1
In another experiment the target is MAPKK-1 (Homo sapiens, UniProt Q02750). Briefly: Protein kinase inhibition assay, MAPKK-1. Type of experiment: biochemical. Here is the method:
as §1

For a further experiment, the target named is p42 MAP kinase (Homo sapiens, UniProt P28482). Briefly: Protein kinase inhibition assay, p42 MAP kinase (MBP substrate). Type of experiment: biochemical. Here is the method:
as §1

Another experiment addresses T3, MAPKAP-K2 (Homo sapiens, UniProt P49137).
T3 construct: cDNA encoding residues 46-400 of human MAPKAP kinase-2 was expressed in E. coli as a GST fusion protein; GST; made in house; host or cells: E. coli
Briefly: Protein kinase inhibition assay, MAPKAP-K2 (peptide […] substrate). In kind it is biochemical. As for the experimental part: as §1

Experiment [3] addresses T4, RAC-PKα (Homo sapiens, UniProt P31749, T308A).
T4 construct: made in house; host or cells: COS-1 cells (DEAE-dextran transfection, serum-starved), immunoprecipitated with 12CA5 antibody
In kind it is biochemical. The conditions noted are these: COS-1 cells.

Experiment [4] has as its system RAC-PKα. In kind it is cell-based, human.
The subject of the next experiment is MAPKAP kinase-2. Type of experiment: cell-based.
The test system of another experiment is GSK3. In kind it is cell-based.
The test system of another experiment is MAPKAP kinase-1. The experiment is described as follows: MAPKAP kinase-1 activation by insulin in L6 myotubes. In kind it is cell-based. The source says: (d)—As (c) except that MAPKAP kinase-1 was immunoprecipitated from the lysates and assayed with S6 peptide (filled circles).
Experiment [5] relates to RAC-PKα.
In another experiment the test system is p70s6k-Myc. Briefly: Transient cotransfection of RAC-PKα with p70s6k-Myc. Type of experiment: cell-based. As to conditions: coexpression. Here is the method: To examine this possibility, the regulation of p70^[…] is investigated in a transient cotransfection assay using human 293 cells. RAC-PKα constructs are prepared by ligating the RAC-PKα cDNA [see Jones et al. (1991), supra] in-frame to the initiator methionine, in the mammalian expression vector pECE. The construct is also subcloned into a CMV promoter-driven expression vector. The construct is confirmed by restriction analysis and sequencing. Constructs expressing Myc-tagged p70^[…] are obtained from Dr. G. Thomas, […] Institut, Basel, Switzerland. Constructs are transfected into COS cells using standard procedures.

Here are results for seven molecules from US7897371B2, “Activation of mutated RAC-PK” (Novartis AG, priority 1995, dated 2011).

Read-outs that look alike come from different tables or passages of the source.

T1 sequence (A0A5F9C4L9 1-740): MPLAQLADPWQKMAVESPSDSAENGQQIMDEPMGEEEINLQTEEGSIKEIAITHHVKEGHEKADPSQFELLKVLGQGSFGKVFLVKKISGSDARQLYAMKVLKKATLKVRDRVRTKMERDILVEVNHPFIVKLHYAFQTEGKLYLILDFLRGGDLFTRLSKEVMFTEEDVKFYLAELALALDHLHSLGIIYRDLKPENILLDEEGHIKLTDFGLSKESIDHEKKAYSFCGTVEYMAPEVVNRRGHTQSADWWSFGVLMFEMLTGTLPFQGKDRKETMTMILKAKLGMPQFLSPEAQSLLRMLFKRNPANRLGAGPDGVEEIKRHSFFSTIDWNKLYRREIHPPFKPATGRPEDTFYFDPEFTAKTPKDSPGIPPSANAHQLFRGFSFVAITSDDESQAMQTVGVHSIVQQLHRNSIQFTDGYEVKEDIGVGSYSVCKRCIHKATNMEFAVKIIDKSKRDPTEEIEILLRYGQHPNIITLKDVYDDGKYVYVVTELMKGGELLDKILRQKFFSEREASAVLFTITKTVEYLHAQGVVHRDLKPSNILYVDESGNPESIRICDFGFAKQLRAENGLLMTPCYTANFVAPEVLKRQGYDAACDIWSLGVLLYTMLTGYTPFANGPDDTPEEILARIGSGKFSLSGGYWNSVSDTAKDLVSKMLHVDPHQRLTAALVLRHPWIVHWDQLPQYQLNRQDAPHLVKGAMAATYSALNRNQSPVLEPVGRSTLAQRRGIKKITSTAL
Sequence of p42 MAP kinase (P28482 whole entry): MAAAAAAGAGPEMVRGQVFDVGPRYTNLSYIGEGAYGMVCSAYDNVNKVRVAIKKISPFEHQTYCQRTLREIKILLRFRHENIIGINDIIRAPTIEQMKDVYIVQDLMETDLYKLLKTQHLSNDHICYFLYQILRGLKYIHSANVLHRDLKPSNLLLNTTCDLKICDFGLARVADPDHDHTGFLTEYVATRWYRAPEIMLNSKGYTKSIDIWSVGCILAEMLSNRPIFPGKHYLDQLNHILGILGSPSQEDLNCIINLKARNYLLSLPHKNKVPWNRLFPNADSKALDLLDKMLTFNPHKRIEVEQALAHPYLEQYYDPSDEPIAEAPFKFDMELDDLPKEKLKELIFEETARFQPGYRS
Sequence of GSK3β (P49841 whole entry): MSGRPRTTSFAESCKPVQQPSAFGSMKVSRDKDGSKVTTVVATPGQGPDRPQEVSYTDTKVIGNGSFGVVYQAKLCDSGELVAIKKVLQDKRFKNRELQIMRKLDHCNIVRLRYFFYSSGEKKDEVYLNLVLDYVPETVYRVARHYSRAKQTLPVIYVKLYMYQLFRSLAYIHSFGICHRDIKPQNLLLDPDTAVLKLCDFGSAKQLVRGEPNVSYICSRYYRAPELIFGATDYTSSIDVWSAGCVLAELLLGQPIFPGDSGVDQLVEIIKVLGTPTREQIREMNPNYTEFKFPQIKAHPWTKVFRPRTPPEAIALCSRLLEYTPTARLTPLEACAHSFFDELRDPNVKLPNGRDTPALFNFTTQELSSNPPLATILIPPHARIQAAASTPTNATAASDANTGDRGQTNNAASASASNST
T2 sequence (P67999 24-525): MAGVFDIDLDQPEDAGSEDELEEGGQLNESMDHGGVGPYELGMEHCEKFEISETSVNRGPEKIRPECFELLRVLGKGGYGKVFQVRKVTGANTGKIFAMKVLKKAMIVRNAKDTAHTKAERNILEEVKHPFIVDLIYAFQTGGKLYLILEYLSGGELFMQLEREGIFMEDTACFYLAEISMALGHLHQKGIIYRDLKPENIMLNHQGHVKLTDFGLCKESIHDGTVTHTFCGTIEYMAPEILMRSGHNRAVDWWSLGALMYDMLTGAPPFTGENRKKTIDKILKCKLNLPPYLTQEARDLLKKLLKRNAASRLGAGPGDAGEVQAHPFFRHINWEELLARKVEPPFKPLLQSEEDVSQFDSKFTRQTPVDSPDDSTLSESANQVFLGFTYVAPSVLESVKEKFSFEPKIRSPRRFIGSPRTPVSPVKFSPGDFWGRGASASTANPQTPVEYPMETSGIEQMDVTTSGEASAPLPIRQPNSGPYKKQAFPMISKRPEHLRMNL
Sequence of c-Raf1 (P04049 whole entry): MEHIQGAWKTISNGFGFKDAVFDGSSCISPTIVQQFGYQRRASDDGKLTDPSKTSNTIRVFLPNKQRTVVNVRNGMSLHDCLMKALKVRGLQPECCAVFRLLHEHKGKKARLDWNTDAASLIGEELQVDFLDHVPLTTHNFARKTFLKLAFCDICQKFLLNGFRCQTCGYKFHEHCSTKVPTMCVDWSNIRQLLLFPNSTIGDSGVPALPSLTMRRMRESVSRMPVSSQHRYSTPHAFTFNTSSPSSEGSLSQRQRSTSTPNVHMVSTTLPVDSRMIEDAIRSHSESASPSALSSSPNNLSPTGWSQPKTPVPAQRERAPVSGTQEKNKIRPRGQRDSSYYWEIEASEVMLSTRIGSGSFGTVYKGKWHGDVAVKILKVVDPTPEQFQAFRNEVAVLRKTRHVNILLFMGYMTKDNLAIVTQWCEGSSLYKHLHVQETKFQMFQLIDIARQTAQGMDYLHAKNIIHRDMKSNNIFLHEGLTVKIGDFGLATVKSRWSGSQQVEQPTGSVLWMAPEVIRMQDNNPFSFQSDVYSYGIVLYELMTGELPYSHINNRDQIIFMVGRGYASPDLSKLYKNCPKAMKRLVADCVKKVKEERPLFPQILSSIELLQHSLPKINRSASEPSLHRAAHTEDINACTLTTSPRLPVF
Sequence of MAPKK-1 (Q02750 whole entry, species assumed): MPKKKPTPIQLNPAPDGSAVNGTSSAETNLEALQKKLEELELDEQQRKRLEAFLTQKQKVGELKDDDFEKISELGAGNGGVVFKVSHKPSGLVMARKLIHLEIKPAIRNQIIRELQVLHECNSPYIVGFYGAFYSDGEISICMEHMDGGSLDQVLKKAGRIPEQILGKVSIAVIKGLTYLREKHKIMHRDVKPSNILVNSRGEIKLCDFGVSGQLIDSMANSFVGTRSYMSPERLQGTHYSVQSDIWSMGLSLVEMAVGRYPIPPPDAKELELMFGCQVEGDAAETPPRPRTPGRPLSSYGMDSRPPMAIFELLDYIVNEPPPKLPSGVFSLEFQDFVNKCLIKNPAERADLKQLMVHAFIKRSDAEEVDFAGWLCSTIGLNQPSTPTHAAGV
Sequence of PK B (P31749 whole entry): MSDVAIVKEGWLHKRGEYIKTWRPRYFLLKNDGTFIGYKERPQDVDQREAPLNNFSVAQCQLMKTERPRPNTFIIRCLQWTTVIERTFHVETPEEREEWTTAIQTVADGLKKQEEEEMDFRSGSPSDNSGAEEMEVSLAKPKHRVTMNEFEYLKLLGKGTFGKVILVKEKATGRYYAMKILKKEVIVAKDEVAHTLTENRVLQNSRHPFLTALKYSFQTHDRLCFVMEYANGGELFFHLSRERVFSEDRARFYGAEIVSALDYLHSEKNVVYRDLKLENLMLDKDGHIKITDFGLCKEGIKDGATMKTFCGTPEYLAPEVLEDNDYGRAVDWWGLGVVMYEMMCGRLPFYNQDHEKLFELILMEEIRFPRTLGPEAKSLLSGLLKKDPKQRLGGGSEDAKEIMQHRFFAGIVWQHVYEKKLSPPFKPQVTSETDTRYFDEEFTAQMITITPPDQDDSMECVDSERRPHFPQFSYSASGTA
T4 sequence (P31749 whole entry T308A): as the sequence (P31749 whole entry) above, with T308A counted along it
T3 sequence (P49137 46-400): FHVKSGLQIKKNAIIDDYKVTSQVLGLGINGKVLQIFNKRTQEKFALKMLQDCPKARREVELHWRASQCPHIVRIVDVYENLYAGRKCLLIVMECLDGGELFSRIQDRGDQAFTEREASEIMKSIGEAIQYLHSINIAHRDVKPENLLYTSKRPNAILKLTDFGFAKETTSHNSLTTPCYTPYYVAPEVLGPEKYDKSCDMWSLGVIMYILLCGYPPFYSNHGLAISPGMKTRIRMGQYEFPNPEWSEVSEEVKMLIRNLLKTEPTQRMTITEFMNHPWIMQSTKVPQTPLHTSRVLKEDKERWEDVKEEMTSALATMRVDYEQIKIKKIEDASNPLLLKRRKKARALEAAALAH

As to “HA-308D/473D RAC-PK: RAC-PKα with both Thr308 and Ser473 mutated to Asp, constitutively active”, the “Activity relative to unstimulated (dephosphorylated) WT HA-RAC-PKα” value with RAC-PKα [1] turned out to be 18 fold. Besides, the “Increase in GSK3 activity on PP2A treatment” value in the experiment on GSK3β was 85%. Further, in the experiment on RAC-PKα [2], the “Activity relative to WT HA-RAC-PKα in unstimulated cells” value came out at 40 fold.

Consider `Cn1cc(C2=C(c3cn(CCCSC(=N)N)c4ccccc34)C(=O)NC2=O)c2ccccc21` [Ro 318220], for which the half-maximal inhibitory concentration (IC50) (commonly the concentration that inhibits the measured activity by half) turned out to be 5 nM at mixed isoforms of PKC; 1000 nM against PK B; 3 nM at MAPKAP-K1β (read-out: IC50, MAPKAP-K1β); 15 nM at p70 S6 kinase. On c-Raf1, the “Inhibition of c-Raf1 in vitro” value was “not inhibited significantly”. Also, the “Inhibition of MAPKK-1 in vitro” value on MAPKK-1 is recorded as “not inhibited significantly”. In addition, on p42 MAP kinase, the “Inhibition of p42 MAP kinase in vitro” value is “not inhibited significantly”. Also, the “Inhibition of MAPKAP-K2 in vitro” value on MAPKAP-K2 is “not inhibited significantly”.

In the case of “HA-308A RAC-PKα: HA-tagged RAC-PKα with Thr308 changed to Ala”, in the experiment with RAC-PKα [3], the “Activity as percentage of unstimulated WT enzyme” value is “about 40%”.

On to `C[S+]([O-])c1ccc(-c2nc(-c3ccncc3)c(-c3ccc(F)cc3)[nH]2)cc1` (stereo not drawn) [SB 203580], for which the “Effect on activation of RAC-PKα by insulin or IGF-1” value with RAC-PKα [4] is on record as “had no effect”. Further, the “Effect on activation of MAPKAP kinase-2” value in the experiment with MAPKAP kinase-2 is “prevented”.

With `CN(C)CCCn1cc(C2=C(c3c[nH]c4ccccc34)C(=O)NC2=O)c2ccccc21` [GF 109203X], the IC50 against mixed isoforms of PKC turned out to be 30 nM; on MAPKAP-K1β (read-out: IC50, MAPKAP-K1 B), 50 nM; at p70 S6 kinase, 100 nM. Further, the “Inhibition of PK B in vitro” value at PK B is “without inhibiting”. Moreover, the “Inhibition of c-Raf1 in vitro” value on c-Raf1 is listed as “without inhibiting”. In addition, the “Inhibition of MAPKK-1 in vitro” value on MAPKK-1 is “without inhibiting”. For the same molecule, the “Inhibition of p42 MAP kinase in vitro” value on p42 MAP kinase is listed as “without inhibiting”.

For the molecule `COc1cccc(-c2cc(=O)c3ccccc3o2)c1N` [PD 98059], the “Effect on inhibition of GSK3 by insulin” value in the experiment with GSK3 is “unaffected”. In the experiment with MAPKAP kinase-1, the “Effect on activation of MAPKAP kinase-1” value is “prevented”. For the same molecule, the “Effect on insulin activation of RAC-PK” value in the experiment on RAC-PKα [5] is reported as “essentially unaffected”.

B1: RAC-PKα: human RAC protein kinase α, wild type, SEQ ID NO. 3 (protein)
chain: MNDVAIVKEGWLHKRGEYIKTWRPRYFLLKNDGTFIGYKERPQDVEQRESPLNNFSVAQCQLMKTERPRPNTFIIRCLQWTTVIERTFHVETPEEREEWTTAIQTVADGLKRQEEETMDFRSGSPSDNSGAEEMEVALAKPKHRVTMNEFEYLKLLGKGTFGKVILVKEKATGRYYAMKILKKEVIVAKDEVAHTLTENRVLQNSRHPFLTALKYSFQTHDRLCFVMEYANGGELFFHLSRERVFSEDRARFYGAEIVSALDYLHSEKNVVYRDLKLENLMLDKDGHIKITDFGLCKEGIKDGATMKTFCGTPEYLAPEVLEDNDYGRAVDWWGLGVVMYEMMCGRLPFYNQDHEKLFELILMEEIRFPRTLGPEAKSLLSGLLKKDPTQRLGGGSEDAKEIMQHRFFANIVWQDVYEKKLSPPFKPQVTSETDTRYFDEEFTAQMITITPPDQDDSMECVDSERRPHFPQFSYSASGTA
Consider B1, for which, in the experiment on p70s6k-Myc, the “Increase of basal p70s6k-Myc activity” value worked out at 3.5 fold and the “Increase of insulin-stimulated p70s6k-Myc activity” value came out at 3 fold. Further, the “Increase in GSK3 activity on PP2A treatment” value in the experiment with GSK3β is listed as 68%.
